Where two headings read alike, the source gives them in different places. One block for each compound: values may come before it.
Experiments:
human a-thrombin = target: T1, human a-thrombin (Homo sapiens, UniProt P00734); experiment: In vitro assay for determining proteinase inhibition: human a-thrombin; type: biochemical; settings: for relative activity of diastereomers in a thrombin inhibition assay: compared with the other diastereomer
T1 construct: human a-thrombin
Procedure: Assays of human a-thrombin and bovine trypsin were performed at 25° C. in 0.05M TRIS buffer pH 7.4, 0.15M NaCl, 0.1% PEG. Trypsin assays also contained 1 mM CaCl2.
Concentrations of stock solutions of Z-GPR-afc were determined from measurements of absorbance at 380 nm of the 7-amino-4-trifluoromethyl coumarin produced upon complete hydrolysis of an aliquot of the stock solution by thrombin.
Activity assays were performed by diluting a stock solution of substrate at least tenfold to a final concentration ≥0. I Km into a solution containing enzyme or enzyme equilibrated with inhibitor. Times required to achieve equilibration between enzyme and inhibitor were determined in control experiments. Initial velocities of product formation in the absence (Vo) or presence of inhibitor (Vi) were measured. Assuming competitive inhibition, and that unity is negligible compared Km /[S], […] (where [S], [I], and e respectively represent the total concentrations, of substrate, inhibitor and enzyme), the equilibrium constant (Ki) for dissociation of the inhibitor from the enzyme can be obtained from the dependence of Vo /Vi on [I] shown in equation 1.

[1] = tested on: thrombotic occlusion of the right carotid artery; experiment: In vivo rat ferric chloride assay measuring thrombotic occlusion; parameters: species or system Male Sprague-Dawley rats; settings: FeCl3, rats
Procedure: Applicants have conducted in vivo studies of the compounds claimed herein using the following rat ferric chloride assay.
In the assay used to determine in vivo activity of the thrombin inhibitors or the invention, Male Sprague-Dawley rats (body weights 200-350 grams) were anesthetized with dial-urethane solution (0.1 ml/100 gm body weight i.p.), and a lateral tail vein was cannulated with a 23 gauge needle connected to a 12 inch length of PE50 tubing. The tubing was attached to a 3-way valve by a tubing adapter. Saline (control) or test compound, as appropriate, was administered via the tail vein catheter. A tracheostomy was performed with a 0.75 inch length of PE205 tubing. The right carotid artery was exposed and a 1.3 mm diameter Doppler flow probe was placed on the vessel. Body temperature was maintained at 37° C. using a heat lamp.
Rats (8-10/group) were randomized to continuous intravenous infusions of saline or test compound administered via the tail vein at a rate of 0.028 ml/min. Treatment infusions were initiated 120 min before the placement of a 3 mm square piece of Whatman No. 1 filter paper saturated with 35% FeCl3 onto the exposed carotid artery distal to the flow probe. […] Time to occlusion was defined as the time from application of FeCl3 to thrombotic occlusion of the vessel.

[2] = Table 1, read-out: Ki vs Thrombin
[3] = Table 1, part headed Ki (NM), read-out: Ki vs thrombin
[4] = Table 2, lower part, head Ki(nM) without target, read-out: Ki
[5] = Table 2, read-out: Ki vs thrombin

Ki (human a-thrombin; [3]): 2.3 nM
SMILES: CC(C)(C)C[C@@H](NC(=O)OCc1ccccc1)C(=O)N1CCC[C@H]1C(=O)NC[C@H]1CC[C@H](N)CC1 [CbzNH, CH2 -tBu]

Ki (human a-thrombin; [2]): 2.3 nM
SMILES: CN[C@H](CC1CCCCC1)C(=O)N1CCC[C@H]1C(=O)NC[C@H]1CC[C@H](N)CC1

Ki (human a-thrombin; [5]): 0.1 nM
SMILES: CC1(C)C2CCC1(CS(=O)(=O)N[C@H](CC1CCCCC1)C(=O)N1CCC[C@H]1C(=O)NC[C@H]1CC[C@H](N)CC1)C(=O)C2 (some centres unmarked)

Ki (human a-thrombin; [2]): 9.4 nM
SMILES: CC(C)(C)OC(=O)N[C@H](Cc1ccccc1)C(=O)N1CCC[C@H]1C(=O)NC[C@H]1CC[C@H](N)CC1

Ki (human a-thrombin; [5]): 0.4 nM
SMILES: CC(C)(C)C[C@@H](NS(=O)(=O)Cc1ccccc1)C(=O)N1CCC[C@H]1C(=O)NC[C@H]1CC[C@H](N)CC1

Ki (human a-thrombin; [2]): 17 nM
SMILES: CS(=O)(=O)N[C@H](Cc1ccccc1)C(=O)N1CCC[C@H]1C(=O)NC[C@H]1CC[C@H](N)CC1 [PhCH2, CH3 SO2 NH]

Ki (human a-thrombin; [3]): 50 nM
SMILES: CC(C)(C)OC(=O)N[C@H](CCc1ccccc1)C(=O)N1CCC[C@H]1C(=O)NC[C@H]1CC[C@H](N)CC1

Ki (human a-thrombin; [2]): > 10000 nM
SMILES: CC(=O)N1CCC[C@H]1C(=O)NC[C@H]1CC[C@H](N)CC1 [H, H]

Ki (human a-thrombin; [2]): 170 nM
SMILES: CC(=O)N[C@H](Cc1ccccc1)C(=O)N1CCC[C@H]1C(=O)NC[C@H]1CC[C@H](N)CC1

Ki (human a-thrombin; [3]): 6 nM
SMILES: CC(C)(C)OC[C@@H](NC(=O)OC(C)(C)C)C(=O)N1CCC[C@H]1C(=O)NC[C@H]1CC[C@H](N)CC1 [BocNH, CH2 O-tBu]

Ki (human a-thrombin; [2]): 2.9 nM
SMILES: CN[C@H](Cc1ccc(Cl)c(Cl)c1)C(=O)N1CCC[C@H]1C(=O)NC[C@H]1CC[C@H](N)CC1 [3,4-Cl2PhCH2, CH3 NH]

Ki (human a-thrombin; [2]): 3 nM
SMILES: N[C@H]1CC[C@H](CNC(=O)[C@@H]2CCCN2C(=O)[C@@H](CC2CCCCC2)NS(=O)(=O)CC(F)(F)F)CC1

Ki (human a-thrombin; [2]): 3.4 nM
SMILES: N[C@H](Cc1ccccc1)C(=O)N1CCC[C@H]1C(=O)NC[C@H]1CC[C@H](N)CC1 [PhCH2, NH2]

Ki (human a-thrombin): 0.4 nM
SMILES: N[C@H]1CC[C@H](CNC(=O)[C@@H]2CCCN2C(=O)[C@@H](Cc2ccccc2)NS(=O)(=O)Cc2ccccc2)CC1

Ki (human a-thrombin; [3]): 12 nM
SMILES: CC(C)(C)OC(=O)N[C@H](CC1CCCCC1)C(=O)N1CCC[C@H]1C(=O)NC[C@H]1CC[C@H](N)CC1

Ki (human a-thrombin; [5]): 1.3 nM
SMILES: N[C@H]1CC[C@H](CNC(=O)[C@@H]2CCCN2C(=O)[C@@H](Cc2ccccc2)NCC(=O)O)CC1

Ki (human a-thrombin; [5]): 0.05 nM
SMILES: CC(C)(C)OC[C@@H](NS(=O)(=O)CC12CCC(CC1=O)C2(C)C)C(=O)N1CCC[C@H]1C(=O)NC[C@H]1CC[C@H](N)CC1 (some centres unmarked)

Ki (human a-thrombin; [2]): 150 nM
SMILES: N[C@H]1CC[C@H](CNC(=O)[C@@H]2CCCN2C(=O)CCC2CCCCC2)CC1 [C6 H11 CH2, H]

Continued, compound first:

SMILES: N[C@H]1CC[C@H](CNC(=O)[C@@H]2CCCN2C(=O)CCc2ccccc2)CC1 [PhCH2, H]
Ki (human a-thrombin; [2]): 680 nM

SMILES: N[C@H]1CC[C@H](CNC(=O)[C@@H]2CCCN2C(=O)[C@H](NCC(=O)O)C(c2ccccc2)c2ccccc2)CC1 [drawing 39]
Ki (human a-thrombin; [4]): 0.17 nM

SMILES: N[C@H](Cc1cccnc1)C(=O)N1CCC[C@H]1C(=O)NC[C@H]1CC[C@H](N)CC1
Ki (human a-thrombin; [2]): 30 nM

SMILES: N[C@H]1CC[C@H](CNC(=O)[C@@H]2CCCN2C(=O)C2Cc3ccccc3CN2)CC1 (some centres unmarked)
Ki (human a-thrombin; [2]): 152 nM

SMILES: N[C@H]1CC[C@H](CNC(=O)[C@@H]2CCCN2C(=O)CCc2ccc(Cl)c(Cl)c2)CC1 [3,4-Cl2PhCH2, H]
Ki (human a-thrombin; [2]): 414 nM

SMILES: N[C@H]1CC[C@H](CNC(=O)[C@@H]2CCCN2C(=O)[C@H](NCC(=O)O)C(c2ccc(Cl)cc2)c2ccc(Cl)cc2)CC1
Ki (human a-thrombin; [4]): 0.13 nM

SMILES: N[C@H]1CC[C@H](CNC(=O)[C@@H]2CCCN2C(=O)[C@@H](Cc2c[nH]c3ccccc23)NC(=O)OCc2ccccc2)CC1
Ki (human a-thrombin; [3]): 16 nM

SMILES: N[C@@H](C(=O)N1CCC[C@H]1C(=O)NC[C@H]1CC[C@H](N)CC1)C(c1ccccc1)c1ccccc1 (single isomer, unassigned) [Example 7 less polar diastereomer, trans-4-Aminocyclohexylmethyl L- and D-(3,3)-diphenyl alanyl-L-proline amide]
relative activity of diastereomers in a thrombin inhibition assay (human a-thrombin): more active isomer

SMILES: N[C@H]1CC[C@H](CNC(=O)[C@@H]2CCCN2C(=O)[C@H](O)Cc2ccccc2)CC1
Ki (human a-thrombin; [2]): 63 nM

SMILES: N[C@H]1CC[C@H](CNC(=O)[C@@H]2CCCN2C(=O)C2(O)c3ccccc3Sc3ccccc32)CC1
Ki (human a-thrombin): 3 nM

SMILES: N[C@H]1CC[C@H](CNC(=O)[C@@H]2CCCN2C(=O)C2(O)c3ccccc3-c3ccccc32)CC1
Ki (human a-thrombin; [4]): 1.5 nM

SMILES: CC(C)(C)OC(=O)N[C@@H](C(=O)N1CCC[C@H]1C(=O)NC[C@H]1CC[C@H](N)CC1)[C@@H](OC(C)(C)C)c1ccccc1
Ki (human a-thrombin; [2]): 8 nM

SMILES: N[C@H](Cc1ccc(Cl)c(Cl)c1)C(=O)N1CCC[C@H]1C(=O)NC[C@H]1CC[C@H](N)CC1 [3,4-Cl2PhCH2, NH2]
Ki (human a-thrombin; [2]): 1.5 nM

SMILES: CC(C)(C)OC(=O)N[C@@H](C(=O)N1CCC[C@H]1C(=O)NC[C@H]1CC[C@H](N)CC1)C(OC(C)(C)C)c1ccccc1 (some centres unmarked)
Ki (human a-thrombin; [2]): 200 nM

SMILES: N[C@H]1CC[C@H](CNC(=O)[C@@H]2CCCN2C(=O)[C@@H](Cc2ccccc2)NCCc2ccccc2)CC1
Ki (human a-thrombin; [2]): 4 nM

SMILES: N[C@H]1CC[C@H](CNC(=O)[C@@H]2CCCN2C(=O)[C@@H](Cc2ccccc2)NC(=O)OCc2ccncc2)CC1
Ki (human a-thrombin; [3]): 15 nM

SMILES: C[C@@H](N[C@@H](C(=O)N1CCC[C@H]1C(=O)NC[C@H]1CC[C@H](N)CC1)C(c1ccccc1)c1ccccc1)C(=O)O [drawing 41]
Ki (human a-thrombin; [4]): 0.05 nM

SMILES: N[C@H](Cc1ccc2ccccc2c1)C(=O)N1CCC[C@H]1C(=O)NC[C@H]1CC[C@H](N)CC1
Ki (human a-thrombin; [2]): 27 nM

SMILES: CC(C)(C)OC(=O)N[C@@H](C(=O)N1CCC[C@H]1C(=O)NC[C@H]1CC[C@H](N)CC1)c1ccccc1
Ki (human a-thrombin; [3]): 6.8 nM

SMILES: N[C@@H](C(=O)N1CCC[C@H]1C(=O)NC[C@H]1CC[C@H](N)CC1)C(c1ccccc1)c1ccccc1
Ki (human a-thrombin; [5]): 0.12 nM

SMILES: C[C@@H](N[C@@H](C(=O)N1CCC[C@H]1C(=O)NC[C@H]1CC[C@H](N)CC1)C(c1ccccc1)c1ccccc1)C(=O)O [drawing 48]
Incidence of occlusion ([1]; i.v. dose 1 μg/kg/min): 1/6 | Incidence of occlusion ([1]; i.v. dose 10 μg/kg/min): 0/6

SMILES: CC(C)(C)OC(=O)N[C@@H](C(=O)N1CCC[C@H]1C(=O)NC[C@H]1CC[C@H](N)CC1)C(c1ccccc1)c1ccccc1
Ki (human a-thrombin; [5]): 0.102 nM

SMILES: N[C@H]1CC[C@H](CNC(=O)[C@@H]2CCCN2C(=O)C2COc3ccccc3O2)CC1 (some centres unmarked)
Ki (human a-thrombin; [4]): 55 nM

SMILES: N[C@H]1CC[C@H](CNC(=O)[C@@H]2CCCN2C(=O)[C@H](NCC(=O)O)C(c2ccccc2)c2ccccc2)CC1 [drawing 47]
Incidence of occlusion ([1]; i.v. dose 1 μg/kg/min): 1/6 | Incidence of occlusion ([1]; i.v. dose 10 μg/kg/min): 0/6

SMILES: N[C@H]1CC[C@H](CNC(=O)[C@@H]2CCCN2C(=O)[C@@H](Cc2ccccc2)NC(=O)OCc2ccccc2)CC1
Ki (human a-thrombin; [2]): 3.7 nM

SMILES: N[C@H]1CC[C@H](CNC(=O)[C@@H]2CCCN2C(=O)[C@H](NS(=O)(=O)Cc2ccccc2)C(c2ccccc2)c2ccccc2)CC1 (single isomer, unassigned) [Example 9 less polar diastereomer, trans-4-Amino-cyclohexylmethyl N-(benzylsulfonyl)-D and L-3,3-diphenylalanyl-L-proline amide]
relative activity of diastereomers in a thrombin inhibition assay (human a-thrombin): more active isomer

SMILES: N[C@H]1CC[C@H](CNC(=O)[C@@H]2CCCN2C(=O)CC(c2ccccc2)c2ccccc2)CC1
Ki (human a-thrombin; [5]): 2 nM

Reference: patent US5714485A, “Piperidine and hexahydropyridazine thrombin inhibitors” (Merck & Co., Inc., priority 1997, dated 1998)
